The results in this text go back to US20260085067A1, “CYCLIC SULFONAMIDE RIBONUCLEOTIDE REDUCTASE (RNR) INHIBITORS AND USES THEREOF” (Boundless Bio, Inc., priority 2022, published 2026).

Molecules are shown by their SMILES. pIC50: −log10 of the molar value.

For assay [1], the target named is T1, RNR (RNR1:RNR2 1:1) (Homo sapiens, UniProt P23921).
T1 sequence (P23921 1-792): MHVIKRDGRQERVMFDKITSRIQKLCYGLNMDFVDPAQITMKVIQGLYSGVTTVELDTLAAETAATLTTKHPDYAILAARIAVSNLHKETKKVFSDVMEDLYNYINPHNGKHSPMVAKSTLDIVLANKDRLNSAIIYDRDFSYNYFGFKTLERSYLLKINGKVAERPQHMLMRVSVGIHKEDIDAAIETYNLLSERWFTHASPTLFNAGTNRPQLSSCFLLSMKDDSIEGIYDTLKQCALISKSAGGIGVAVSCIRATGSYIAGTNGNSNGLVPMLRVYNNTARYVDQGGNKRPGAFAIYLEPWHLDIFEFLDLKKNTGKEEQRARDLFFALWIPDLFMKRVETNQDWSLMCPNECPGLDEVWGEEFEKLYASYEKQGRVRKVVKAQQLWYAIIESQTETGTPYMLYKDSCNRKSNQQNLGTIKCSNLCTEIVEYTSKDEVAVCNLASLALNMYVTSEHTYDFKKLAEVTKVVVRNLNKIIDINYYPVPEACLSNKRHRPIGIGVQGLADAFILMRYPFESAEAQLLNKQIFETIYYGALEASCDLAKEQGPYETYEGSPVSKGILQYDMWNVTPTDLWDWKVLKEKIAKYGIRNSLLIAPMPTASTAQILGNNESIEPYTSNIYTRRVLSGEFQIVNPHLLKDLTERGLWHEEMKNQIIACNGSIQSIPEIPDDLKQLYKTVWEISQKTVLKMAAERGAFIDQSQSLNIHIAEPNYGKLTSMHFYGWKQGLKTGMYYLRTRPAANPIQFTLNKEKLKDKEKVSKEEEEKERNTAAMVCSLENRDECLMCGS
Kind of assay: RNR enzyme activity, rapid-fire mass spectrometry (RF/MS) assay. It counts as biochemical. The following applies: [RNR] 50 nM, 1:1 RNR1:RNR2; CDP 5 μM; ATP 1 mM; 37° C., 45 min; compounds screened up to 50 μM. On the procedure: A rapid-fire mass spectrometry (RF/MS) assay was used to assess RNR enzyme activity using a 384 well plate and a robotic platform.
The plate layout included two validated reference compounds (Triapine (3-AP) and Hydroxyurea (HU)): • A dose response in duplicate; top concentration: 5 μM (3-AP) and 250 μM (HU), semi-log dilutions. • Spike wells in triplicate randomly spotted at four concentrations: • 250 μM, 100 μM, 30 μM and 2 μM for HU • 5 μM, 2 μM, 0.6 μM and 0.04 μM for 3-AP
First, the multidrop pipes were saturated for 30 minutes with enzymatic solution. Then 30 μL of Stop solution was distributed in column 24. Next, 15 μL of enzyme was distributed in column 1 to 24. Next, a pre-incubation step of 15 minutes at room temperature occurred, followed by distribution of 15 μL of substrate solution (column 1 to 24). Next, the plate was incubated for 45 minutes at 37° C. 30 μL of Stop solution was then distributed to columns 1 to 23.
The final parameters for the enzyme reactions were: • Incubation: 37° C., 45 min • [CDP]: 5 μM; [ATP]: 1 mM; [NADPH]: No • [RNR]final: 50 nM with 1:1 (RNR1:RNR2) ratio • Final volume: 30 μL • Stop solution: 6% HCOOH in water

The test system of assay [2] is pCHK1 (S345) in Colo320 DM cells. Kind of assay: Alphalisa assay, detection of pCHK1 (S345) in Colo320 DM cells. It counts as cell-based, human. Particulars: Homo sapiens, COLO 320DM, compound overnight (approximately 16 hours). In short, it runs like this: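 Phospho-CHK1 (S345) read by AlphaLisa SureFire in lysates of human colorectal Colo320 DM cells. Compound treatment ran overnight (~16 h, 37 °C, DMSO <0.5%) on cells seeded the day before.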
A general note: Alpha assays give light when donor and acceptor beads are brought close together.

On to `Cc1ccc(F)c([C@@H](C)[C@@H](c2n[nH]c(=O)o2)N2CN([C@H]3CCNC3)c3cc(Cl)ccc3S2(=O)=O)c1C` [Example 59, 5-((1S,2R)-1-(6-chloro-1,1-dioxido-4-((S)-pyrrolidin-3-yl)-3,4-dihydro-2H-benzo[e][1,2,4]thiadiazin-2-yl)-2-(6-fluoro-2,3-dimethylphenyl)propyl)-1,3,4-oxadiazol-2 (3H)-one], for which the pIC50 (as a rule, −log10 of the IC50, conventionally taken in molar units) is more than 7.70 in assay [1] and 5.00 to 5.30 in assay [2].
Taken in the same sequence, the figures for `Cc1ccc(F)c([C@@H](C)[C@@H](c2n[nH]c(=O)o2)N2CCNc3cc(Cl)ccc3S2(=O)=O)c1C` [Example 21, 5-((1S,2R)-1-(7-chloro-1,1-dioxido-4,5-dihydrobenzo[f][1,2,5]thiadiazepin-2 (3H)-yl)-2-(6-fluoro-2,3-dimethylphenyl)propyl)-1,3,4-oxadiazol-2 (3H)-one] were 7.00 to 7.70 and 5.30 to 6.00.
With `Cc1ccc(F)c([C@@H](C)[C@@H](c2n[nH]c(=O)o2)N2CN(C)c3cc(O)ccc3S2(=O)=O)c1C` [Example 66, 5-((1S,2R)-2-(6-fluoro-2,3-dimethylphenyl)-1-(6-hydroxy-4-methyl-1,1-dioxido-3,4-dihydro-2H-benzo[e][1,2,4]thiadiazin-2-yl)propyl)-1,3,4-oxadiazol-2 (3H)-one], the values for the pIC50 in assay [1] and in assay [2] were 7.00 to 7.70 and 4.30 to 5.00, respectively.
Regarding `COCCN1CN([C@H](c2n[nH]c(=O)o2)[C@H](C)c2c(F)ccc(C)c2C)S(=O)(=O)c2ccc(Cl)nc21` [Example 63, 5-((1S,2R)-1-(6-chloro-4-(2-methoxyethyl)-1,1-dioxido-3,4-dihydro-2H-pyrido[2,3-e][1,2,4]thiadiazin-2-yl)-2-(6-fluoro-2,3-dimethylphenyl)propyl)-1,3,4-oxadiazol-2 (3H)-one], the pIC50 in assay [1] was more than 7.70; in assay [2] it was not below 6.00.
Regarding `Cc1ccc(F)c([C@@H](C)[C@@H](c2n[nH]c(=O)o2)N2CN(C3CCOCC3)c3cc(Cl)ccc3S2(=O)=O)c1C` [Example 33, 5-((1S,2R)-1-(6-chloro-1,1-dioxido-4-(tetrahydro-2H-pyran-4-yl)-3,4-dihydro-2H-benzo[e][1,2,4]thiadiazin-2-yl)-2-(6-fluoro-2,3-dimethylphenyl)propyl)-1,3,4-oxadiazol-2 (3H)-one], the figures for the negative-log IC50 (pIC50) in assay [1] and in assay [2] were more than 7.70 and not below 6.00, respectively.
In the case of `Cc1ccc(F)c([C@@H](C)[C@@H](c2n[nH]c(=O)o2)N2COc3cc(Cl)cc(C(=O)N(C)C)c3S2(=O)=O)c1C` [Example 41, 6-chloro-2-((1S,2R)-2-(6-fluoro-2,3-dimethylphenyl)-1-(5-oxo-4,5-dihydro-1,3,4-oxadiazol-2-yl)propyl)-N,N-dimethyl-2,3-dihydrobenzo[e][1,4,3]oxathiazine-8-carboxamide 1,1-dioxide], the pIC50 in assay [1] is 6.00 to 7.00; in assay [2] it was less than 4.30.
Taken in the same sequence, the figures for `Cc1ccc(F)c([C@@H](C)[C@@H](c2n[nH]c(=O)o2)N2CN(CCN(C)C)c3cc(Cl)ccc3S2(=O)=O)c1C` [Example 38, 5-((1S,2R)-1-(6-chloro-4-(2-(dimethylamino)ethyl)-1,1-dioxido-3,4-dihydro-2H-benzo[e][1,2,4]thiadiazin-2-yl)-2-(6-fluoro-2,3-dimethylphenyl)propyl)-1,3,4-oxadiazol-2 (3H)-one] were more than 7.70 and not below 6.00.
Taken in the same sequence, the figures for `Cc1cc2c(cc1Cl)OCCN([C@H](c1n[nH]c(=O)o1)[C@H](C)c1c(F)ccc(C)c1C)S2(=O)=O` [Example 15, 5-((1S,2R)-1-(7-chloro-8-methyl-1,1-dioxido-3,4-dihydro-2H-benzo[b][1,4,5]oxathiazepin-2-yl)-2-(6-fluoro-2,3-dimethylphenyl)propyl)-1,3,4-oxadiazol-2 (3H)-one] were 6.00 to 7.00 and less than 4.30.
For `CC(=O)c1cc(Cl)cc2c1S(=O)(=O)N([C@H](c1n[nH]c(=O)o1)[C@H](C)c1c(F)ccc(C)c1C)CO2` [Example 102, 5-((1S,2R)-1-(8-acetyl-6-chloro-1,1-dioxidobenzo[e][1,4,3]oxathiazin-2 (3H)-yl)-2-(6-fluoro-2,3-dimethylphenyl)propyl)-1,3,4-oxadiazol-2 (3H)-one], in that order: more than 7.70 and not below 6.00.
As for `Cc1ccc(F)c([C@@H](C)[C@@H](c2n[nH]c(=O)o2)N2CN(C)c3cc(Cl)cc(C(=O)N(C)C)c3S2(=O)=O)c1C` [Example 37, 6-chloro-2-((1S,2R)-2-(6-fluoro-2,3-dimethylphenyl)-1-(5-oxo-4,5-dihydro-1,3,4-oxadiazol-2-yl)propyl)-N,N,4-trimethyl-3,4-dihydro-2H-benzo[e][1,2,4]thiadiazine-8-carboxamide 1,1-dioxide], the pIC50 in assay [1] was 5.00 to 6.00; in assay [2], less than 4.30.
`Cc1ccc(F)c([C@@H](C)[C@@H](c2n[nH]c(=O)o2)N2CN(C(C)C)c3cc(Cl)ccc3S2(=O)=O)c1C` [Example 4, 5-((1S,2R)-1-(6-chloro-4-isopropyl-1,1-dioxido-3,4-dihydro-2H-benzo[e][1,2,4]thiadiazin-2-yl)-2-(6-fluoro-2,3-dimethylphenyl)propyl)-1,3,4-oxadiazol-2 (3H)-one]: the values for the pIC50 in assay [1] and in assay [2] were 6.00 to 7.00 and 5.30 to 6.00, respectively.
For the molecule `Cc1ccc(F)c([C@@H](C)[C@@H](c2n[nH]c(=O)o2)N2CN(C3CN(C)C3)c3cc(Cl)ccc3S2(=O)=O)c1C` [Example 65, 5-((1S,2R)-1-(6-chloro-4-(1-methylazetidin-3-yl)-1,1-dioxido-3,4-dihydro-2H-benzo[e][1,2,4]thiadiazin-2-yl)-2-(6-fluoro-2,3-dimethylphenyl)propyl)-1,3,4-oxadiazol-2 (3H)-one], the pIC50 in assay [1] is more than 7.70; in assay [2] it was not below 6.00.
Regarding `Cc1ccc(F)c([C@@H](C)[C@@H](c2n[nH]c(=O)o2)N2CN(C(=O)C3CC3)c3cc(Cl)ccc3S2(=O)=O)c1C` [Example 46, 5-((1S,2R)-1-(6-chloro-4-(cyclopropanecarbonyl)-1,1-dioxido-3,4-dihydro-2H-benzo[e][1,2,4]thiadiazin-2-yl)-2-(6-fluoro-2,3-dimethylphenyl)propyl)-1,3,4-oxadiazol-2 (3H)-one], the values for the pIC50 in assay [1] and in assay [2] were more than 7.70 and not below 6.00, respectively.
With `Cc1ccc(F)c([C@@H](C)[C@@H](c2n[nH]c(=O)o2)N2CCOc3c(ccc(Cl)c3[C@@H](C)N(C)C)S2(=O)=O)c1C` (single isomer, unassigned) [Example 54], the pIC50 in assay [1] was more than 7.70; in assay [2], 5.30 to 6.00.
With `Cc1ccc(F)c([C@@H](C)[C@@H](c2n[nH]c(=O)o2)N2CN(CCCO)c3nc(Cl)ccc3S2(=O)=O)c1C` [Example 82, 5-[(1S,2R)-1-[6-chloro-4-(3-hydroxypropyl)-1,1-dioxo-3H-pyrido[2,3-e][1,2,4]thiadiazin-2-yl]-2-(6-fluoro-2,3-dimethyl-phenyl)propyl]-3H-1,3,4-oxadiazol-2-one], the pIC50 in assay [1] was more than 7.70; in assay [2], not below 6.00.
With `Cc1ccc(F)c([C@H](C)[C@H](c2n[nH]c(=O)o2)N2CN(CC(O)CO)c3cc(Cl)ccc3S2(=O)=O)c1C` (mixture of isomers) [Example 85, 5-((1R,2S)-1-(6-chloro-4-(2,3-dihydroxypropyl)-1,1-dioxido-3,4-dihydro-2H-benzo[e][1,2,4]thiadiazin-2-yl)-2-(6-fluoro-2,3-dimethylphenyl)propyl)-1,3,4-oxadiazol-2 (3H)-one], the pIC50 in assay [1] is more than 7.70; in assay [2] it was 5.30 to 6.00.
For the molecule `Cc1ccc(F)c([C@@H](C)[C@@H](c2n[nH]c(=O)o2)N2CCOc3c(ccc(Cl)c3CN(C)C)S2(=O)=O)c1C` [Example 55, 5-((1S,2R)-1-(7-chloro-6-((dimethylamino)methyl)-1,1-dioxido-3,4-dihydro-2H-benzo[b][1,4,5]oxathiazepin-2-yl)-2-(6-fluoro-2,3-dimethylphenyl)propyl)-1,3,4-oxadiazol-2 (3H)-one], the figures for the pIC50 in assay [1] and in assay [2] were more than 7.70 and 5.30 to 6.00, respectively.
